The values below are quoted from earlier work in patent US20240360091A1, “GLUN2B-SUBUNIT SELECTIVE ANTAGONISTS OF THE N-METHYL-D-ASPARTATE RECEPTORS WITH ENHANCED POTENCY AT ACIDIC PH” (Emory University, priority 2021, published 2024).

One data set concerns nonhuman primates. As to conditions: acute administration; cited from earlier work.
The next data set relates to GluN2B. To be noted: between pH 6.8 and pH 7.5; cited from earlier work.

Structures are written as SMILES.

`C[C@@H]([C@@H](O)c1ccc(O)cc1)N1CCC(O)(c2ccccc2)CC1` [traxoprodil]: in the data set on nonhuman primates, the “cognitive effects in nonhuman primates” value was “produced cognitive impairments in a dose-dependent manner”. The “pH sensitivity for inhibition of receptors” value in the data set on GluN2B is listed as “does not possess a significant pH sensitivity”.
